{"source": "ChEMBL document CHEMBL6103552", "about": "“Identification of peptide-based hepatitis B virus capsid inhibitors based on the viral core protein” (Bioorg Med Chem Lett, 2025)", "note": "Activity calls are given as the source filed them. How the calls were made is not given here."}
{"molecular_target": "Core antigen (Hepatitis B virus) (UniProt Q03732)", "sequence (Q03732 as listed by the source)": "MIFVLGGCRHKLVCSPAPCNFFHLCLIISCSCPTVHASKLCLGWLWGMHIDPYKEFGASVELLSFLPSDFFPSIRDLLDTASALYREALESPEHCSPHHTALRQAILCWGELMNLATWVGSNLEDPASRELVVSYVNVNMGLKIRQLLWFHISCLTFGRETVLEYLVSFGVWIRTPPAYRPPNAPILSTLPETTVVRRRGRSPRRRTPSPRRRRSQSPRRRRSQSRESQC", "test": "Inhibition of Hepatitis B virus capsid formation at 100 uM treated during cell-free wild type HBV Cp synthesis using wheat germ lysates and HBV Cp RNA by Native capsid assay based western blot analysis", "format": "subcellular"}
{"smiles": "CC(=O)N[C@@H](C)C(=O)N[C@@H](CO)C(=O)N[C@H](C(=O)N[C@@H](CCC(=O)O)C(=O)N[C@@H](CC(C)C)C(=O)N[C@@H](CC(C)C)C(=O)N[C@@H](CO)C(=O)N[C@@H](Cc1ccccc1)C(=O)N[C@@H](CC(C)C)C(=O)N1CCC[C@H]1C(=O)N[C@@H](CO)C(=O)N[C@@H](CC(=O)O)C(=O)N[C@@H](Cc1ccccc1)C(=O)N[C@@H](Cc1ccccc1)C(=O)N1CCC[C@H]1C(N)=O)C(C)C", "inhibition": "inactive"}
{"smiles": "CC(=O)N[C@@H](Cc1ccc(O)cc1)C(=O)N[C@@H](CCCCN)C(=O)N[C@@H](CCC(=O)O)C(=O)N[C@@H](Cc1ccccc1)C(=O)NCC(=O)N[C@@H](C)C(=O)N[C@@H](CO)C(=O)N[C@H](C(=O)N[C@@H](CCC(=O)O)C(=O)N[C@@H](CC(C)C)C(=O)N[C@@H](CC(C)C)C(=O)N[C@@H](CO)C(=O)N[C@@H](Cc1ccccc1)C(=O)N[C@@H](CC(C)C)C(=O)N1CCC[C@H]1C(N)=O)C(C)C", "inhibition": "inactive"}
{"smiles": "CC(C)C[C@H](NC(=O)[C@@H](NC(=O)[C@@H](N)CO)[C@@H](C)O)C(=O)N1CCC[C@H]1C(=O)N[C@@H](CCC(=O)O)C(=O)N[C@H](C(=O)N[C@H](C(=O)N[C@H](C(=O)N[C@H](C(=O)N[C@@H](CCCNC(=N)N)C(=O)N[C@@H](CCCNC(=N)N)C(=O)N[C@@H](CCCNC(=N)N)C(=O)NCC(=O)N[C@@H](CCCNC(=N)N)C(=O)N[C@@H](CO)C(N)=O)C(C)C)C(C)C)[C@@H](C)O)[C@@H](C)O", "inhibition": "inactive"}
{"smiles": "CC(C)C[C@H](NC(=O)[C@H](CC(C)C)NC(=O)[C@H](CCC(=O)O)NC(=O)[C@@H](NC(=O)[C@H](CO)NC(=O)[C@H](C)N)C(C)C)C(=O)N[C@@H](CO)C(=O)N[C@@H](Cc1ccccc1)C(=O)N[C@@H](CC(C)C)C(=O)N1CCC[C@H]1C(=O)N[C@@H](CO)C(=O)N[C@@H](CC(=O)O)C(=O)N[C@@H](Cc1ccccc1)C(=O)N[C@@H](Cc1ccccc1)C(=O)N1CCC[C@H]1C(N)=O", "inhibition": "inactive"}
{"smiles": "CC(C)C[C@H](NC(=O)[C@H](CC(C)C)NC(=O)[C@H](CCC(=O)O)NC(=O)[C@@H](NC(=O)[C@H](CO)NC(=O)[C@H](C)NC(=O)CNC(=O)[C@H](Cc1ccccc1)NC(=O)[C@H](CCC(=O)O)NC(=O)[C@H](CCCCN)NC(=O)[C@@H](N)Cc1ccc(O)cc1)C(C)C)C(=O)N[C@@H](CO)C(=O)N[C@@H](Cc1ccccc1)C(=O)N[C@@H](CC(C)C)C(=O)N1CCC[C@H]1C(N)=O", "inhibition": "inactive"}
{"smiles": "CC(C)C[C@H](NC(=O)[C@H](CC(N)=O)NC(=O)[C@H](CO)NC(=O)CNC(=O)[C@@H](NC(=O)[C@@H](N)Cc1c[nH]c2ccccc12)C(C)C)C(=O)N[C@@H](CCC(=O)O)C(=O)N[C@@H](CC(=O)O)C(=O)N1CCC[C@H]1C(=O)N[C@@H](C)C(=O)N[C@@H](CO)C(=O)N[C@@H](CCCNC(=N)N)C(=O)N[C@@H](CCC(=O)O)C(=O)N[C@@H](CC(C)C)C(=O)N[C@H](C(N)=O)C(C)C", "inhibition": "inactive"}
{"smiles": "CC(C)C[C@H](NC(=O)[C@H](CCC(=O)O)NC(=O)[C@H](CCCNC(=N)N)NC(=O)[C@H](CO)NC(=O)[C@H](C)NC(=O)[C@@H]1CCCN1C(=O)[C@H](CC(=O)O)NC(=O)[C@H](CCC(=O)O)NC(=O)[C@@H](N)CC(C)C)C(=O)N[C@H](C(=O)N[C@H](C(=O)N[C@@H](CO)C(=O)N[C@@H](Cc1ccc(O)cc1)C(=O)N[C@H](C(=O)N[C@@H](CC(N)=O)C(N)=O)C(C)C)C(C)C)C(C)C", "inhibition": "inactive"}
{"smiles": "CC[C@H](C)[C@H](NC(=O)[C@@H](N)CO)C(=O)N[C@@H](CCCNC(=N)N)C(=O)N[C@@H](CC(=O)O)C(=O)N[C@@H](CC(C)C)C(=O)N[C@@H](CC(C)C)C(=O)N[C@@H](CC(=O)O)C(=O)N[C@H](C(=O)N[C@@H](C)C(=O)N[C@@H](CO)C(=O)N[C@@H](C)C(=O)N[C@@H](CC(C)C)C(=O)N[C@@H](Cc1ccc(O)cc1)C(=O)N[C@@H](CCCNC(=N)N)C(=O)N[C@@H](CCC(=O)O)C(N)=O)[C@@H](C)O", "inhibition": "inactive"}
{"smiles": "CC[C@H](C)[C@H](NC(=O)[C@@H]1CCCN1C(=O)[C@H](C)NC(=O)[C@@H](N)CC(N)=O)C(=O)N[C@@H](CC(C)C)C(=O)N[C@@H](CO)C(=O)N[C@H](C(=O)N[C@@H](CC(C)C)C(=O)N1CCC[C@H]1C(=O)N[C@@H](CCC(=O)O)C(=O)N[C@H](C(=O)N[C@H](C(=O)N[C@H](C(=O)N[C@H](C(=O)N[C@@H](CCCNC(=N)N)C(N)=O)C(C)C)C(C)C)[C@@H](C)O)[C@@H](C)O)[C@@H](C)O", "inhibition": "inactive"}
{"smiles": "CC[C@H](C)[C@H](NC(=O)[C@H](C)NC(=O)[C@H](CCC(N)=O)NC(=O)[C@@H]1CCCN1)C(=O)N[C@@H](CC(C)C)C(=O)N[C@@H](CS)C(=O)N[C@@H](Cc1c[nH]c2ccccc12)C(=O)NCC(=O)N[C@@H](CCC(=O)O)C(=O)N[C@@H](CC(C)C)C(=O)N[C@@H](CCSC)C(=O)N[C@@H](CC(N)=O)C(=O)N[C@@H](CC(C)C)C(=O)N[C@@H](C)C(=O)N[C@H](C(N)=O)[C@@H](C)O", "inhibition": "inactive"}
{"smiles": "CC[C@H](C)[C@H](NC(=O)[C@H](CC(=O)O)NC(=O)[C@@H](N)CCSC)C(=O)N[C@@H](CC(=O)O)C(=O)N1CCC[C@H]1C(=O)N[C@@H](Cc1ccc(O)cc1)C(=O)N[C@@H](CCCCN)C(=O)N[C@@H](CCC(=O)O)C(=O)N[C@@H](Cc1ccccc1)C(=O)NCC(=O)N[C@@H](C)C(=O)N[C@@H](CO)C(=O)N[C@H](C(=O)N[C@@H](CCC(=O)O)C(=O)N[C@@H](CC(C)C)C(N)=O)C(C)C", "inhibition": "inactive"}
{"smiles": "CC[C@H](C)[C@H](NC(=O)[C@H](CC(=O)O)NC(=O)[C@H](CCSC)NC(C)=O)C(=O)N[C@@H](CC(=O)O)C(=O)N1CCC[C@H]1C(=O)N[C@@H](Cc1ccc(O)cc1)C(=O)N[C@@H](CCCCN)C(=O)N[C@@H](CCC(=O)O)C(=O)N[C@@H](Cc1ccccc1)C(=O)NCC(=O)N[C@@H](C)C(=O)N[C@@H](CO)C(=O)N[C@H](C(=O)N[C@@H](CCC(=O)O)C(=O)N[C@@H](CC(C)C)C(N)=O)C(C)C", "inhibition": "inactive"}
{"smiles": "CC[C@H](C)[C@H](NC(=O)[C@H](CO)NC(=O)[C@@H]1CCCN1C(=O)[C@H](Cc1ccccc1)NC(=O)[C@H](Cc1ccccc1)NC(=O)[C@H](CC(=O)O)NC(=O)[C@@H](N)CO)C(=O)N[C@@H](CCCNC(=N)N)C(=O)N[C@@H](CC(=O)O)C(=O)N[C@@H](CC(C)C)C(=O)N[C@@H](CC(C)C)C(=O)N[C@@H](CC(=O)O)C(=O)N[C@H](C(=O)N[C@@H](C)C(=O)N[C@@H](CO)C(N)=O)[C@@H](C)O", "inhibition": "inactive"}
{"smiles": "CC[C@H](C)[C@H](NC(=O)[C@H](CO)NC(=O)[C@@H]1CCCN1C(=O)[C@H](Cc1ccccc1)NC(=O)[C@H](Cc1ccccc1)NC(=O)[C@H](CC(=O)O)NC(=O)[C@H](CO)NC(=O)[C@@H]1CCCN1C(=O)[C@H](CC(C)C)NC(=O)[C@H](Cc1ccccc1)NC(=O)[C@H](CO)NC(=O)[C@@H](N)CC(C)C)C(=O)N[C@@H](CCCNC(=N)N)C(=O)N[C@@H](CC(=O)O)C(=O)N[C@@H](CC(C)C)C(N)=O", "inhibition": "inactive"}
{"smiles": "CC[C@H](C)[C@H](NC(=O)[C@H](CO)NC(=O)[C@@H]1CCCN1C(=O)[C@H](Cc1ccccc1)NC(=O)[C@H](Cc1ccccc1)NC(=O)[C@H](CC(=O)O)NC(=O)[C@H](CO)NC(=O)[C@@H]1CCCN1C(=O)[C@H](CC(C)C)NC(=O)[C@H](Cc1ccccc1)NC(=O)[C@H](CO)NC(=O)[C@H](CC(C)C)NC(C)=O)C(=O)N[C@@H](CCCNC(=N)N)C(=O)N[C@@H](CC(=O)O)C(=O)N[C@@H](CC(C)C)C(N)=O", "inhibition": "inactive"}
{"smiles": "CC[C@H](C)[C@H](NC(=O)[C@H](CO)NC(=O)[C@@H]1CCCN1C(=O)[C@H](Cc1ccccc1)NC(=O)[C@H](Cc1ccccc1)NC(=O)[C@H](CC(=O)O)NC(=O)[C@H](CO)NC(C)=O)C(=O)N[C@@H](CCCNC(=N)N)C(=O)N[C@@H](CC(=O)O)C(=O)N[C@@H](CC(C)C)C(=O)N[C@@H](CC(C)C)C(=O)N[C@@H](CC(=O)O)C(=O)N[C@H](C(=O)N[C@@H](C)C(=O)N[C@@H](CO)C(N)=O)[C@@H](C)O", "inhibition": "inactive"}
{"smiles": "CC[C@H](C)[C@H](NC(=O)[C@H](Cc1c[nH]c2ccccc12)NC(=O)[C@@H](NC(=O)CNC(=O)[C@H](Cc1ccccc1)NC(=O)[C@@H](N)CO)C(C)C)C(=O)N[C@@H](CCCNC(=N)N)C(=O)N[C@H](C(=O)N1CCC[C@H]1C(=O)N1CCC[C@H]1C(=O)N[C@@H](C)C(=O)N[C@@H](Cc1ccc(O)cc1)C(=O)N[C@@H](CCCNC(=N)N)C(=O)N1CCC[C@H]1C(=O)N1CCC[C@H]1C(N)=O)[C@@H](C)O", "inhibition": "inactive"}
{"smiles": "CC[C@H](C)[C@H](NC(=O)[C@H](Cc1c[nH]cn1)NC(=O)[C@H](Cc1ccccc1)NC(=O)[C@H](Cc1c[nH]c2ccccc12)NC(=O)[C@H](CC(C)C)NC(=O)[C@H](CC(C)C)NC(=O)[C@H](CCC(N)=O)NC(=O)[C@H](CCCNC(=N)N)NC(=O)[C@H](Cc1ccccc1)NC(=O)[C@H](CCCCN)NC(=O)[C@H](CC(C)C)NC(=O)CNC(=O)[C@H](CCSC)NC(=O)[C@H](CC(N)=O)NC(=O)[C@@H](N)C(C)C)C(N)=O", "inhibition": "inactive"}
{"smiles": "CSCC[C@H](N)C(=O)N[C@@H](CC(N)=O)C(=O)N[C@@H](CC(C)C)C(=O)N[C@@H](C)C(=O)N[C@H](C(=O)N[C@@H](Cc1c[nH]c2ccccc12)C(=O)N[C@H](C(=O)NCC(=O)N[C@@H](CO)C(=O)N[C@@H](CC(N)=O)C(=O)N[C@@H](CC(C)C)C(=O)N[C@@H](CCC(=O)O)C(=O)N[C@@H](CC(=O)O)C(=O)N1CCC[C@H]1C(=O)N[C@@H](C)C(N)=O)C(C)C)[C@@H](C)O", "inhibition": "inactive"}
{"smiles": "CSCC[C@H](NC(=O)[C@H](CC(C)C)NC(=O)[C@H](CCC(=O)O)NC(=O)CNC(=O)[C@H](Cc1c[nH]c2ccccc12)NC(=O)[C@@H](N)CS)C(=O)N[C@@H](CC(N)=O)C(=O)N[C@@H](CC(C)C)C(=O)N[C@@H](C)C(=O)N[C@H](C(=O)N[C@@H](Cc1c[nH]c2ccccc12)C(=O)N[C@H](C(=O)NCC(=O)N[C@@H](CO)C(=O)N[C@@H](CC(N)=O)C(N)=O)C(C)C)[C@@H](C)O", "inhibition": "inactive"}
{"smiles": "CSCC[C@H](NC(=O)[C@H](CC(N)=O)NC(=O)[C@@H](NC(=O)[C@H](CC(N)=O)NC(=O)[C@@H](NC(=O)[C@H](Cc1ccc(O)cc1)NC(=O)[C@H](CO)NC(=O)[C@@H](NC(=O)[C@@H](NC(=O)[C@H](CC(C)C)NC(=O)[C@H](CCC(=O)O)NC(=O)[C@H](CCCNC(=N)N)NC(=O)[C@@H](N)CO)C(C)C)C(C)C)C(C)C)C(C)C)C(=O)NCC(=O)N[C@@H](CC(C)C)C(N)=O", "inhibition": "inactive"}
